For orientation: logP means a log measure of how a compound divides between an organic and an aqueous phase.

This passage reports logP results from the SangsterLogP compilation.

The data set in a line: from Langlois, M.; Dubost, J.; Audry, E.; Dallet, P.; Colleter, J. (1989). Simultaneous determination of physicochemical constants usable in QSAR in a series of alpha-adrenergic amines. Analusis : chimie ….
With `Clc1ccc(C2NCCc3c2[nH]c2ccccc32)c(Cl)c1` (centres undefined), the logP turned out to be 3.58.
With `Fc1ccccc1C1NCCc2c1[nH]c1ccccc21` (centres undefined) the figure was 3.16; with `O=[N+]([O-])c1ccc(Cl)c(C2NCCc3c2[nH]c2ccccc32)c1` (centres undefined), 3.33; with `Clc1ccc(C2NCCc3c2[nH]c2ccccc32)cc1Cl` (centres undefined), 3.38.
For the compound `Clc1cccc(C2NCCc3c2[nH]c2ccccc32)c1` (centres undefined), the logP came to 3.47.
With `Clc1cccc(Cl)c1C1NCCc2c1[nH]c1ccccc21` (centres undefined) the figure was 3.34.
Compound `c1ccc2c3c([nH]c2c1)C(c1ccc2c(c1)OCO2)NCC3` (centres undefined) gave a logP of 3.69.
In the case of `c1ccc(C(CC2NCCc3c2[nH]c2ccccc32)c2ccccc2)cc1` (centres undefined), the logP was determined as 3.47.
As for `O=[N+]([O-])c1cccc(C2NCCc3c2[nH]c2ccccc32)c1` (centres undefined), the logP is 3.04.
